Assay results taken from PubChem BioAssay AID2060604 (Molecular Pharmacology Branch, DTP, NCI, 2025).
“And” between values parts separate entries of the source, which are not always exact repeats. Identical values can stand only once.

Test system: 379773-124-R-J2-PDC complex spheroids, viability % test/control
Assay: Anticancer human tumor 379773-124-R-J2-PDC patient-derived endometrial carcinoma cell line growth inhibition [CLK]
Conditions: for viability, T/C: stronger effect = lower value; for IC50: curve of compound
Text: A high-throughput screen of multi-cell type tumor spheroids was designed to identify active combinations of […] and targeted small molecules. Complex spheroids include a stromal component modeled by human endothelial cells (HUVEC) and fibroblasts modeled by human mesenchymal stem cells (MSCs). The concentration ranges selected for each drug and investigational agent were based upon clinically achievable concentrations if the clinical Cmax of the agent was known.
Compounds. The drugs and investigational agents: cirtuvivint (SM08502; NSC835563), CC-671 (NSC850746), vemurafenib (NSC761431), tapotoclax (NSC804041), sotorasib (NSC818433), adagrasib (NSC831453), MRTX-1133 (NSC836407), BAY2416964 (NSC825713), copanlisib (NSC816437), inavolisib (NSC800729), abemaciclib (NSC768073), osimertinib (NSC779217), entinostat (NSC756642), eltanexor (KPT-8602, NSC794443), venetoclax (NSC766270), ceralasertib (NSC777638), bortezomib (NSC756655), olaparib (NSC753686), talazoparib (NSC767125), alisertib (NSC759677), peposertib (NSC802822), gemcitabine (NSC613327), 5-fluorouracil (NSC19893), SN-38 (NSC673596), oxaliplatin (NSC266046), paclitaxel (NSC125973), and doxorubicin (NSC123127), were obtained from the National Cancer Institute (NCI) Developmental Therapeutics Program Chemical Repository. The FDA-approved anticancer drug set is available from the Developmental Therapeutics Program at https://dtp.cancer.gov/organization/dscb/obtaining/available plates.htm. […] The stock solutions were prepared in dimethyl sulfoxide (DMSO, Sigma-Aldrich, St. Louis, MO, cat. D2650), except for the platinum complexes which were prepared in saline (Quality Biological, Gaithersburg, MD, cat. 114-055-101), at 800-fold the tested concentration and stored at -70 degrees C prior to their use. All drugs and investigational agents were tested over a range starting from a high concentration at or near the clinical Cmax and decreasing in half-log increments. If the clinical Cmax for an agent had not been determined, the highest concentration tested was 10 microM.
Cell Culture. All cells were maintained in an incubator at 37 degrees C and 5% CO2 with 95% humidity. The PDC lines were cultured according to standard operating procedures established by the NCI PDMR. Briefly, all PDCs were thawed and cultured in Matrigel-coated flasks prepared with a working solution of 1X Ham's F-12 nutrient mix, without supplementation (Invitrogen, Waltham, MA, cat. 11765054), 100 U/mL penicillin-streptomycin (Invitrogen, cat. 15140122), and 2.5% Matrigel (Corning Inc., Corning, NY, cat. 354248) for the first three passages. The 947758-054-R-J2-PDC line was cultured in 6B/Colon 1A media, which includes advanced DMEM/F-12 (Thermo Fisher Scientific, cat. 12634028), 10 mM HEPES (Thermo Fisher Scientific, cat. 15630080), 1X GlutaMAX supplement (Thermo Fisher Scientific, cat. 35050061), 0.1 mg/mL primocin (InvivoGen, cat. ant-pm-2), 10% defined fetal bovine serum, heat inactivated (HyClone Laboratories Inc., cat. SH30070.03HI), 1.25 mM N-Acetyl-L-cysteine (Sigma-Aldrich, cat. A9165), 10 mM nicotinamide (Sigma-Aldrich, cat. N0636), 1X B-27 supplement (Thermo Fisher Scientific, cat. 17504044), 1X N-2 supplement (Thermo Fisher Scientific, cat. 17502048), and 10 microM Y-27632 dihydrochloride (Tocris Bioscience, cat. 1254). The 876862-298-R-J1-PDC was cultured in 6E media, which includes all 6B/Colon 1A media components plus 50% L-WRN conditioned media (ATCC, cat. CRL-3276), 50 ng/mL recombinant human EGF recombinant protein (hEGF; Thermo Fisher Scientific, cat. PHG0311), 10 ng/mL recombinant human fibroblast growth factor 10 (hGFG-10; PeproTech, cat. 100-26), 1 ng/mL recombinant human fibroblast growth factor 2 (hFGF-2; PeproTech, cat. 100-18B), and 1 µM prostaglandin E2 (PGE2; Tocris, cat. 2296). The 227483-062-R1-J1-PDC line was cultured in Panc media, containing all 6E components except hFGF-2, with the addition of 500 nM SB-431542 (Selleckchem, cat. S1067) and 10 nM gastrin (Tocris, cat. 3006). […]
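Further: compound exposure lasted seven days before the viability readout.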
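Wherever viability, T/C is given: 100% = DMSO vehicle control wells.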

Row | IC50 | SMILES | viability, T/C (compound 0.0316 µM) | viability, T/C (compound 0.1 µM) | viability, T/C (compound 0.316 µM) | viability, T/C (compound 1 µM) | viability, T/C (compound 3.16 µM) | viability, T/C (compound 10 µM) | viability, T/C (compound 0.000949 µM) | viability, T/C (compound 0.003 µM) | viability, T/C (compound 0.00949 µM) | viability, T/C (compound 0.03 µM) | viability, T/C (compound 0.0949 µM) | viability, T/C (compound 0.3 µM) | viability, T/C (compound 0.00316 µM) | viability, T/C (compound 0.01 µM)
1 | > 10000 nM | C#Cc1c(F)ccc2cc(O)cc(-c3ncc4c(N5CC6CCC(C5)N6)nc(OCC56CCCN5CC(F)C6)nc4c3F)c12 (configuration not stated) | 90.6% and 93% | 79.4% and 89.5% | 88.3% and 86.8% | 92% and 85.9% | 87% and 103% | 80% and 87.1% |  |  |  |  |  |  |  | 
2 | 2240 nM and 4260 nM | C=C(F)C(=O)N1CCN(c2nc(OCC3CCCN3C)nc3c2CCN(c2cccc4cccc(Cl)c24)C3)CC1CC#N (configuration not stated) | 76.2% and 106% | 93.9% and 84.4% | 95% and 80.9% | 92% and 98.5% | 33.3% and 66.9% | 0.2% and 1.39% |  |  |  |  |  |  |  | 
3 | > 10000 nM | C=CC(=O)N1CCN(c2nc(=O)n(-c3c(C)ccnc3C(C)C)c3nc(-c4c(O)cccc4F)c(F)cc23)C(C)C1 (configuration not stated) | 93.1% and 85.7% | 82.4% and 92.2% | 88.2% and 84.4% | 107% and 91.6% | 95.7% and 98.6% | 92.6% and 94.5% |  |  |  |  |  |  |  | 
4 | > 300 nM | C=CC(=O)Nc1cc(Nc2nccc(-c3cn(C)c4ccccc34)n2)c(OC)cc1N(C)CCN(C)C |  |  |  |  |  |  | 101% and 85.7% | 87.9% and 87.5% | 91.7% and 74.8% | 94.4% and 105% | 96.5% and 100% | 98.5% and 90.8% |  | 
5 | 1.85 nM and 1.53 nM | CC(C)CC(NC(=O)C(Cc1ccccc1)NC(=O)c1cnccn1)B(O)O (configuration not stated) |  |  |  |  |  |  | 83.2% and 77.4% | 25.8% and 11.7% | 0.16% and 0.15% | 0.22% and 0.21% | 0.19% and 0.16% | 0.09% and 0.12% |  | 
6 | > 10000 nM | CC(CO)NC(=O)c1cc(-c2ccc(Cl)cc2)nn(-c2cnn(C)c2)c1=O (configuration not stated) | 98.9% and 90.2% | 83.6% and 92.8% | 84.6% and 97.6% | 68% and 85.8% | 88.3% and 95.1% | 72.3% and 68.5% |  |  |  |  |  |  |  | 
7 | > 10000 nM | CC(Nc1ccc2c(c1)OCCn1cc(N3C(=O)OCC3C(F)F)nc1-2)C(N)=O (configuration not stated) | 84.9% and 92.7% | 93.1% and 85.8% | 93.5% and 79.4% | 79% and 87.4% | 77.1% and 78.5% | 69.1% and 67.6% |  |  |  |  |  |  |  | 
8 | 4880 nM and 4990 nM | CC1(C)CCC(CN2CCN(c3ccc(C(=O)NS(=O)(=O)c4ccc(NCC5CCOCC5)c([N+](=O)[O-])c4)c(Oc4cnc5[nH]ccc5c4)c3)CC2)=C(c2ccc(Cl)cc2)C1 | 89.8% and 83.7% | 92.6% and 89.4% | 96.8% and 94% | 96.9% and 111% | 77.8% and 79.7% | 3.91% and 4.86% |  |  |  |  |  |  |  | 
9 | 2700 nM and 2870 nM | CC1COCCN1c1cc(C2(S(C)(=N)=O)CC2)nc(-c2ccnc3[nH]ccc23)n1 (configuration not stated) | 90.7% and 97.2% | 80.4% and 89.4% | 70.8% and 87.9% | 88.6% and 74.2% | 44.8% and 47.4% | 11.5% and 10.6% |  |  |  |  |  |  |  | 
10 | > 10000 nM | CCCS(=O)(=O)Nc1ccc(F)c(C(=O)c2c[nH]c3ncc(-c4ccc(Cl)cc4)cc23)c1F | 83.1% and 93.8% | 88.5% and 84.4% | 85.2% and 98.8% | 100% and 90.3% | 81.5% and 78.6% | 64.6% and 53.6% |  |  |  |  |  |  |  | 
11 | > 1000 nM | CCN1CCN(Cc2ccc(Nc3ncc(F)c(-c4cc(F)c5nc(C)n(C(C)C)c5c4)n3)nc2)CC1 | 83.8% and 93.2% | 110% and 88.4% | 89.1% and 101% | 81% and 78% |  |  |  |  |  |  |  |  | 87% and 87.5% | 81.6% and 73%
